Experimental data: US6444617B1, “Fused-heterocycle dicarboxylic acid diamide derivatives or salts thereof, herbicide and usage thereof” (Nihon Nohyaku Co., Ltd., priority 1998, dated 2002)

Columns and labels:
Format in all cases: in vivo
[1] = tested on: cocklebur (Xanthium strumarium L.), Xs; assay: Test Example 3: herbicidal effect on upland weeds before emergence; conditions: dosage 5 kg/ha
Summary of the method: (§1)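 Pre-emergence spray of liquid prep, compound at set concentration; read at 14 d post-treatment; weed-kill rate calculated, effect graded.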

[2] = tested on: cleavers (Galium aparine L.), Ga; assay: as above; conditions: dosage 5 kg/ha
Summary of the method: as §1

[3] = tested on: velvetleaf (Abutilon theophtasti L.), At; assay: as above; conditions: dosage 5 kg/ha
Summary of the method: as §1

[4] = tested on: barnyard grass (Echinochloa crus-galli Beauv.), Ec; assay: as above; conditions: dosage 5 kg/ha
Summary of the method: as §1

[5] = tested on: bird's eye speedwell (Veronica persica Poir.), Vp; assay: as above; conditions: dosage 5 kg/ha
Summary of the method: as §1

[6] = tested on: forxtail grass (Alopecurus aequalis var. amurensis Ohwi), Am; assay: as above; conditions: foxtail grass, dosage 5 kg/ha
Summary of the method: as §1

[7] = tested on: cocklebur (Xanthium strumarium L.), Xs; assay: Test Example 4: herbicidal effect on upland weeds after emergence; conditions: dosage 5 kg/ha; sprayed after emergence; judged 14 days after treatment
Summary of the method: (§2)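 Soil vats; sown weeds + soybean/wheat; spray at leaf-stage, prescribed compound concentration; weed-kill rate judged day 14.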

[8] = tested on: cleavers (Galium aparine L.), Ga; assay: as above; conditions: dosage 5 kg/ha; sprayed after emergence; judged 14 days after treatment
Summary of the method: as §2

[9] = tested on: velvetleaf (Abutilon theophtasti L.), At; assay: as above; conditions: dosage 5 kg/ha; sprayed after emergence; judged 14 days after treatment
Summary of the method: as §2

[10] = tested on: barnyard grass (Echinochloa crus-galli Beauv.), Ec; assay: as above; conditions: dosage 5 kg/ha; sprayed after emergence; judged 14 days after treatment
Summary of the method: as §2

[11] = tested on: bird's eye speedwell (Veronica persica Poir.), Vp; assay: as above; conditions: dosage 5 kg/ha; sprayed after emergence; judged 14 days after treatment
Summary of the method: as §2

[12] = tested on: forxtail grass (Alopecurus aequalis var. amurensis Ohwi), Am; assay: as above; conditions: dosage 5 kg/ha; sprayed after emergence; judged 14 days after treatment
Summary of the method: as §2

[13] = tested on: soybean plant; assay: Test Example 4: phytotoxicity to upland crop plants, treatment after emergence; conditions: dosage 5 kg/ha, sprayed after emergence, judged 14 days after treatment
Summary of the method: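 Weeds and soybean grown in soil-filled vats to set leaf stages, then sprayed post-emergence with the compound at a prescribed concentration. Weed-killing rate and crop phytotoxicity judged 14 days after treatment.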

[14] = tested on: wheat; assay: as above; conditions: dosage 5 kg/ha, sprayed after emergence, judged 14 days after treatment
Summary of the method: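 Weeds, soybean and wheat were sown in soil-filled vats, covered with soil and grown to set leaf stages before a post-emergence spray of an agent containing the compound at a prescribed concentration. Weed-killing rate and crop phytotoxicity were assessed 14 days after treatment.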

[15] = tested on: soybean plant (So); assay: Test Example 3: phytotoxicity to upland crop plants, treatment before emergence; conditions: dosage 5 kg/ha
Summary of the method: (§3)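 A sprayed liquid agent with a prescribed concentration of active compound was applied pre-emergence. Visual phytotoxicity on soybean and wheat was rated by criterion two weeks (14 days) after application, concurrently with the herbicidal assessment.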

[16] = tested on: wheat (Wh); assay: as above; conditions: dosage 5 kg/ha
Summary of the method: as §3

[17] = tested on: monochoria (Monochoria vaginalis Presl); assay: Test Example 2: herbicidal effect on paddy field weeds after emergence; conditions: Dosage 5 kg/ha; one-leaved stage; 21 days after treatment
Summary of the method: (§4)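 Weeds were sown in 1/10000 are pots of soil flooded to paddy conditions and grown to the one-leaf stage, then the soil was treated with a solution of compound at a predetermined dosage.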

[18] = tested on: barnyard grass (Echinochloa crus-galli Beauv.); assay: as above; conditions: Dosage 5 kg/ha; one-leaved stage; 21 days after treatment
Summary of the method: as §4

[19] = tested on: bulrush (Scirpus juncoides Roxb.); assay: as above; conditions: Dosage 5 kg/ha; one-leaved stage; 21 days after treatment
Summary of the method: as §4

[20] = tested on: barnyard grass (Echinochloa crus-galli Beauv.); assay: Test Example 1: herbicidal effect on paddy field weeds before emergence; conditions: Dosage 5 kg/ha
Summary of the method: (§5)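 Grading reflects percent control relative to untreated plots, evaluated three weeks post-application. Treatment was a soil application of compound solution, predetermined dose, made to paddy-state pots before weed seeds germinated.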

[21] = tested on: bulrush (Scirpus juncoides Roxb.); assay: as above; conditions: Dosage 5 kg/ha
Summary of the method: as §5

SMILES	Herbicidal effect Xs [1]	Herbicidal effect Ga [2]	Herbicidal effect At [3]	Herbicidal effect Ec [4]	Herbicidal effect Vp [5]	Herbicidal effect Am [6]	Herbicidal effect Xs [7]	Herbicidal effect Ga [8]	Herbicidal effect At [9]	Herbicidal effect Ec [10]	Herbicidal effect Vp [11]	Herbicidal effect Am [12]	Phytotoxicity So [13]	Phytotoxicity Wh [14]	Phytotoxicity So [15]	Phytotoxicity Wh [16]	Post-emergence treatment Monochoria (herbicidal effect) [17]	Post-emergence treatment Barnyard grass (herbicidal effect) [18]	Post-emergence treatment Bulrush (herbicidal effect) [19]	Pre-emergence treatment Barnyard grass (herbicidal effect) [20]	other results
CCCNC(=O)c1nc2c(cc1C(=O)Nc1cccc(Cl)c1C)OCCC2 [compound 498]	4 (Weed-killing rate is 90-99%.)	4 (Weed-killing rate is 90-99%.)	5 (Weed-killing rate is 100%.)	5 (Weed-killing rate is 100%.)	5 (Weed-killing rate is 100%.)	5 (Weed-killing rate is 100%.)	4 (Weed-killing rate is 90-99%.)	4 (Weed-killing rate is 90-99%.)	5 (Weed-killing rate is 100%.)	5 (Weed-killing rate is 100%.)	5 (Weed-killing rate is 100%.)	5 (Weed-killing rate is 100%.)	4 (Crop-killing rate is 90-99%.)	4 (Crop-killing rate is 90-99%.)	4 (Crop-killing rate is 90-99%.)	4 (Crop-killing rate is 90-99%.)	5 (Weed-killing rate is 100%.)	5 (Weed-killing rate is 100%.)	5 (Weed-killing rate is 100%.)	5 (Weed-killing rate is 100%.)	Pre-emergence treatment Bulrush (herbicidal effect) [21]: 5 (Weed-killing rate is 100%.)
CCCNC(=O)c1nc2c(cc1C(=O)Nc1c(CC)ccc(Cl)c1CC)CCCS2 [compound 510]	5 (Weed-killing rate is 100%.)	5 (Weed-killing rate is 100%.)	5 (Weed-killing rate is 100%.)	5 (Weed-killing rate is 100%.)	5 (Weed-killing rate is 100%.)	5 (Weed-killing rate is 100%.)	5 (Weed-killing rate is 100%.)	5 (Weed-killing rate is 100%.)	5 (Weed-killing rate is 100%.)	5 (Weed-killing rate is 100%.)	5 (Weed-killing rate is 100%.)	5 (Weed-killing rate is 100%.)	4 (Crop-killing rate is 90-99%.)	5 (Crop-killing rate is 100%.)	4 (Crop-killing rate is 90-99%.)	5 (Crop-killing rate is 100%.)	5 (Weed-killing rate is 100%.)	5 (Weed-killing rate is 100%.)	5 (Weed-killing rate is 100%.)	5 (Weed-killing rate is 100%.)	Pre-emergence treatment Bulrush (herbicidal effect) [21]: 5 (Weed-killing rate is 100%.)
CCc1ccc(Cl)c(CC)c1NC(=O)c1cc2c(nc1C(=O)NC1CCCC1)SCCC2 [compound 519]	5 (Weed-killing rate is 100%.)	5 (Weed-killing rate is 100%.)	5 (Weed-killing rate is 100%.)	5 (Weed-killing rate is 100%.)	5 (Weed-killing rate is 100%.)	5 (Weed-killing rate is 100%.)	5 (Weed-killing rate is 100%.)	5 (Weed-killing rate is 100%.)	5 (Weed-killing rate is 100%.)	5 (Weed-killing rate is 100%.)	5 (Weed-killing rate is 100%.)	5 (Weed-killing rate is 100%.)	4 (Crop-killing rate is 90-99%.)	5 (Crop-killing rate is 100%.)	4 (Crop-killing rate is 90-99%.)	5 (Crop-killing rate is 100%.)	5 (Weed-killing rate is 100%.)	5 (Weed-killing rate is 100%.)	5 (Weed-killing rate is 100%.)	5 (Weed-killing rate is 100%.)	Pre-emergence treatment Bulrush (herbicidal effect) [21]: 5 (Weed-killing rate is 100%.)
Cc1c(Cl)cccc1NC(=O)c1cc2c(nc1C(=O)NCC(C)C)SCCC2 [compound 527]	4 (Weed-killing rate is 90-99%.)	5 (Weed-killing rate is 100%.)	5 (Weed-killing rate is 100%.)	5 (Weed-killing rate is 100%.)	5 (Weed-killing rate is 100%.)	5 (Weed-killing rate is 100%.)	4 (Weed-killing rate is 90-99%.)	5 (Weed-killing rate is 100%.)	5 (Weed-killing rate is 100%.)	5 (Weed-killing rate is 100%.)	5 (Weed-killing rate is 100%.)	5 (Weed-killing rate is 100%.)	5 (Crop-killing rate is 100%.)	5 (Crop-killing rate is 100%.)	5 (Crop-killing rate is 100%.)	5 (Crop-killing rate is 100%.)	5 (Weed-killing rate is 100%.)	5 (Weed-killing rate is 100%.)	5 (Weed-killing rate is 100%.)	5 (Weed-killing rate is 100%.)	Pre-emergence treatment Bulrush (herbicidal effect) [21]: 5 (Weed-killing rate is 100%.)
